Source: DBAASP
Converted amounts (≈) assume the structure as drawn.

Assays:
Experiment in all cases: ≥ marks a high value that may be exact or a test limit, other limits are often not marked, values filed in µg/mL are converted to µM
[1] = test system: Staphylococcus aureus ATCC 25923
[2] = test system: Escherichia coli ATCC 25726
[3] = test system: Candida albicans ATCC 2002
[4] = test system: Escherichia coli ATCC 25922
[5] = test system: Pseudomonas aeruginosa CMCCB 10104
[6] = test system: Salmonella typhimurium KCTC 1926
[7] = test system: Staphylococcus epidermidis KCTC 1917
[8] = test system: Pseudomonas aeruginosa KCTC 1637
[9] = test system: Escherichia coli KCTC 1682
[10] = test system: Staphylococcus aureus KCTC 1621
[11] = test system: Bacillus subtilis KCTC 3068
[12] = test system: Bacillus subtilis ATCC 6633
Escherichia coli UB1005 = test system: Escherichia coli UB1005
[13] = test system: Enterococcus faecalis ATCC 29212
[14] = test system: Staphylococcus epidermidis C621
[15] = test system: Pseudomonas aeruginosa ATCC 27853

Row | MIC [1] | MIC [3] | MIC [4] | MIC [5] | Structure (SMILES) | also measured
1 | 50 µM (≈ 68.4 µg/mL) | – | – | – | CC[C@H](C)[C@H](NC(=O)[C@@H]1CCCN1C(=O)[C@H](CC(C)C)NC(=O)[C@@H](N)Cc1ccccc1)C(=O)N[C@@H](CC(C)C)C(=O)NCC(=O)N[C@@H](CC(N)=O)C(=O)N[C@@H](CC(C)C)C(=O)N[C@@H](CC(C)C)C(=O)N[C@@H](CO)C(=O)NCC(=O)N[C@@H](CC(C)C)C(=O)N[C@@H](CC(C)C)C(N)=O [FLPILGNLLSGLL] | MIC [2]: ≥ 100 µM
2 | 2.27 µM (≈ 11 µg/mL) | 2.27 µM (≈ 11 µg/mL) | 1.13 µM (≈ 5.5 µg/mL) | 2.27 µM (≈ 11 µg/mL) | CC[C@H](C)[C@H](NC(=O)CN)C(=O)N[C@@H](Cc1ccccc1)C(=O)N[C@@H](CO)C(=O)N[C@@H](CCCCN)C(=O)N[C@H](C(=O)N[C@@H](CO)C(=O)NCC(=O)N[C@@H](CCCCN)C(=O)N[C@@H](C)C(=O)N[C@H](C(=O)N[C@@H](CCCCN)C(=O)N[C@@H](CC(N)=O)C(=O)N[C@@H](CC(C)C)C(=O)N[C@@H](Cc1ccccc1)C(=O)N[C@H](C(=O)N[C@@H](CCCCN)C(=O)NCC(=O)N[C@@H](C)C(=O)N[C@@H](CCCCN)C(=O)N[C@@H](CC(N)=O)C(=O)N[C@H](C(=O)NCC(=O)N[C@@H](CCCCN)C(=O)N[C@@H](CCCN=C(N)N)C(=O)N[C@H](C(=O)NCC(=O)N[C@@H](CCSC)C(=O)N[C@@H](CC(=O)O)C(=O)N[C@H](C(=O)N[C@H](C(=O)N[C@@H](CCCN=C(N)N)C(=O)N[C@H](C(=O)NCC(=O)N[C@@H](CCSC)C(=O)N[C@@H](CC(=O)O)C(=O)N[C@H](C(=O)N[C@H](C(=O)NCC(=O)N[C@H]1CSSC[C@@H](C(=O)O)NC(=O)[C@H](CCC(=O)O)NC(=O)CNC(=O)[C@H](CCCCN)NC(=O)[C@H]([C@@H](C)CC)NC(=O)[C@H](CCCCN)NC1=O)C(C)C)C(C)C)[C@@H](C)O)C(C)C)C(C)C)C(C)C)C(C)C)[C@@H](C)CC)[C@@H](C)CC)[C@@H](C)CC [GIFSKISGKAIKNLFIKGAKNVGKRVGMDVVRTGMDVVGCKIKGEC] | –
3 | 3.05 µM (≈ 6.19 µg/mL) | 1.53 µM (≈ 3.1 µg/mL) | 3.05 µM (≈ 6.19 µg/mL) | 6.1 µM (≈ 12.4 µg/mL) | CC[C@H](C)[C@H](NC(=O)CN)C(=O)N[C@@H](CC(C)C)C(=O)NCC(=O)N[C@@H](CC(N)=O)C(=O)N[C@H](C(=O)N[C@H](C(=O)NCC(=O)N[C@@H](CCSC)C(=O)NCC(=O)N[C@@H](CCCCN)C(=O)N[C@@H](CCCCN)C(=O)N[C@H](C(=O)N[C@H](C(=O)N[C@H]1CSSC[C@@H](C(=O)O)NC(=O)[C@H](CC(C)C)NC(=O)CNC(=O)[C@H](CO)NC(=O)[C@H](CC(C)C)NC(=O)CNC1=O)C(C)C)[C@@H](C)CC)C(C)C)[C@@H](C)CC [GILGNIVGMGKKIVCGLSGLC] | –
4 | 4.32 µM (≈ 8.59 µg/mL) | 4.32 µM (≈ 8.59 µg/mL) | 4.32 µM (≈ 8.59 µg/mL) | 8.64 µM (≈ 17.2 µg/mL) | CC[C@H](C)[C@H](NC(=O)CNC(=O)[C@H](CO)NC(=O)[C@H](CC(C)C)NC(=O)[C@@H](NC(=O)CN)[C@@H](C)CC)C(=O)N[C@@H](CC(C)C)C(=O)NCC(=O)N[C@H](C(=O)NCC(=O)N[C@@H](CCCCN)C(=O)N[C@@H](CCSC)C(=O)N[C@@H](CC(C)C)C(=O)N[C@H](C(=O)N[C@H]1CSSC[C@@H](C(=O)O)NC(=O)[C@H](CC(C)C)NC(=O)CNC(=O)[C@H](CO)NC(=O)[C@H](CC(C)C)NC(=O)CNC1=O)C(C)C)C(C)C [GILSGILGVGKMLVCGLSGLC] | –
5 | 5.82 µM (≈ 12.2 µg/mL) | 11.6 µM (≈ 24.3 µg/mL) | 11.6 µM (≈ 24.3 µg/mL) | 23.2 µM (≈ 48.6 µg/mL) | CC[C@H](C)[C@H](NC(=O)[C@H](CC(C)C)NC(=O)[C@@H](NC(=O)[C@H](Cc1ccccc1)NC(=O)[C@H](CC(C)C)NC(=O)CN)[C@@H](C)O)C(=O)N[C@@H](CCCCN)C(=O)NCC(=O)N[C@@H](C)C(=O)N[C@@H](Cc1ccc(O)cc1)C(=O)N[C@@H](CCCCN)C(=O)N[C@@H](CC(N)=O)C(=O)N[C@@H](CC(=O)O)C(=O)N[C@@H](C)C(=O)N1CCC[C@H]1C(=O)N[C@H](C(=O)N[C@H](C(=O)N[C@@H](C)C(=O)N[C@@H](CS)C(=O)N[C@@H](CC(N)=O)C(=O)O)C(C)C)[C@@H](C)O [GLFTLIKGAYKNDAPTVACN] | –
6 | 0.924 µM (≈ 3.6 µg/mL) | 0.924 µM (≈ 3.6 µg/mL) | 0.924 µM (≈ 3.6 µg/mL) | 0.924 µM (≈ 3.6 µg/mL) | CC[C@H](C)[C@H](NC(=O)[C@H](CC(C)C)NC(=O)[C@H](CCC(N)=O)NC(=O)[C@@H](NC(=O)[C@H](C)NC(=O)CNC(=O)[C@H](CCCCN)NC(=O)[C@@H](NC(=O)[C@H](CC(C)C)NC(=O)[C@@H](NC(=O)[C@H](Cc1ccccc1)NC(=O)[C@@H](NC(=O)CN)C(C)C)[C@@H](C)O)[C@@H](C)CC)[C@@H](C)O)C(=O)NCC(=O)N[C@@H](CCCCN)C(=O)N[C@H](C(=O)N[C@@H](CC(C)C)C(=O)NCC(=O)N[C@@H](CCCCN)C(=O)N[C@@H](CCC(=O)O)C(=O)N[C@@H](CC(C)C)C(=O)NCC(=O)N[C@@H](CCCCN)C(=O)N[C@H](C(=O)NCC(=O)N[C@@H](CC(C)C)C(=O)N[C@@H](CCC(=O)O)C(=O)N[C@@H](CC(C)C)C(=O)N[C@@H](CCSC)C(=O)N[C@@H](C)C(=O)N[C@H]1CSSC[C@@H](C(=O)O)NC(=O)[C@H](CCC(N)=O)NC(=O)[C@H](CCC(=O)O)NC(=O)[C@H]([C@@H](C)O)NC(=O)[C@H]([C@@H](C)CC)NC(=O)[C@H](CCCCN)NC1=O)[C@@H](C)O)[C@@H](C)O [GVFTLIKGATQLIGKTLGKELGKTGLELMACKITEQC] | –
7 | > 100 µM | – | – | – | CC[C@H](C)[C@H](NC(=O)[C@H](CCC(=O)O)NC(=O)[C@H](CO)NC(=O)[C@@H](NC(=O)[C@H](CC(C)C)NC(=O)[C@H](C)NC(=O)[C@H](CCC(N)=O)NC(=O)CNC(=O)[C@H](Cc1ccccc1)NC(=O)[C@H](CCCCN)NC(=O)[C@H](CCCCN)NC(=O)[C@H](C)NC(=O)[C@H](CO)NC(=O)[C@H](Cc1cnc[nH]1)NC(=O)[C@H](CC(C)C)NC(=O)[C@H](Cc1ccccc1)NC(=O)[C@H](CCCCN)NC(=O)CNC(=O)[C@@H](NC(=O)CN)C(C)C)C(C)C)C(=O)N[C@@H](CCSC)C(=O)N[C@@H](CCCCN)C(=O)N[C@@H](CO)C(=O)O [GVGKFLHSAKKFGQALVSEIMKS] | MIC [2]: ≥ 50 µM
8 | – | – | – | – | CC[C@H](C)[C@H](N)C(=O)N[C@@H](CC(C)C)C(=O)N[C@@H](CCCCN)C(=O)N[C@@H](Cc1c[nH]c2ccccc12)C(=O)N[C@@H](CCCCN)C(=O)N[C@@H](Cc1c[nH]c2ccccc12)C(=O)N[C@@H](CCCCN)C(=O)N[C@@H](Cc1c[nH]c2ccccc12)C(=O)N[C@@H](Cc1c[nH]c2ccccc12)C(=O)N1CCC[C@H]1C(=O)N[C@@H](Cc1c[nH]c2ccccc12)C(=O)N[C@@H](CCCN=C(N)N)C(=O)N[C@@H](CCCN=C(N)N)C(N)=O [ILKWKWKWWPWRR] | MIC [6]: 5.08 µM (≈ 10 µg/mL); MIC [7]: 5.08 µM (≈ 10 µg/mL); MIC [8]: 5.08 µM (≈ 10 µg/mL); MIC [9]: 5.08 µM (≈ 10 µg/mL); MIC [10]: 5.08 µM (≈ 10 µg/mL); MIC [11]: 5.08 µM (≈ 10 µg/mL)
9 | 3.35 µM (≈ 8.59 µg/mL) | 3.35 µM (≈ 8.59 µg/mL) | 3.35 µM (≈ 8.59 µg/mL) | 3.35 µM (≈ 8.59 µg/mL) | CC[C@H](C)[C@H](N)C(=O)N[C@@H](CC(N)=O)C(=O)N1CCC[C@H]1C(=O)N[C@@H](Cc1ccccc1)C(=O)N[C@H](C(=O)N[C@@H](C)C(=O)NCC(=O)N[C@H](C(=O)N[C@@H](C)C(=O)N[C@@H](C)C(=O)N[C@@H](CCC(=O)O)C(=O)N[C@@H](CCSC)C(=O)N[C@@H](CCSC)C(=O)N[C@@H](CCC(N)=O)C(=O)N[C@@H](Cc1cnc[nH]1)C(=O)N[C@H](C(=O)N[C@@H](Cc1ccc(O)cc1)C(=O)N[C@H]1CSSC[C@@H](C(=O)O)NC(=O)[C@H](CCCCN)NC(=O)[C@H](CCCCN)NC(=O)[C@H](CO)NC(=O)[C@H](C)NC(=O)[C@H](C)NC1=O)C(C)C)C(C)C)C(C)C [INPFVAGVAAEMMQHVYCAASKKC] | –
10 | > 32 µM | – | 16 µM (≈ 28.7 µg/mL) | – | C[C@H](NC(=O)[C@H](C)NC(=O)[C@H](Cc1ccccc1)NC(=O)[C@H](C)NC(=O)[C@H](C)NC(=O)[C@H](Cc1ccccc1)NC(=O)[C@H](C)NC(=O)[C@H](C)NC(=O)[C@H](Cc1ccccc1)NC(=O)[C@H](C)NC(=O)[C@H](C)NC(=O)[C@H](CCCCN)NC(=O)[C@H](CCCCN)NC(=O)[C@H](CCCCN)NC(=O)[C@H](CCCCN)NC(=O)[C@H](CCCCN)NC(=O)[C@@H](N)CCCCN)C(N)=O [KKKKKKAAFAAFAAFAA] | MIC [12]: 16 µM (≈ 28.7 µg/mL); MIC (Escherichia coli UB1005): 2 µM (≈ 3.59 µg/mL); MIC [13]: > 32 µM; MIC [14]: 8 µM (≈ 14.4 µg/mL); MIC [15]: 16 µM (≈ 28.7 µg/mL)
11 | > 126 µM | ≥ 126 µM | > 126 µM | ≥ 126 µM | CC(C)[C@H](N)C(=O)N[C@H](C(=O)N[C@@H](CCCCN)C(=O)N[C@@H](CS)C(=O)N[C@@H](CO)C(=O)N[C@@H](Cc1ccc(O)cc1)C(=O)N[C@@H](CCCN=C(N)N)C(=O)N[C@@H](CCC(N)=O)C(=O)NCC(=O)N[C@@H](CO)C(=O)N1CCC[C@H]1C(=O)N[C@@H](CC(=O)O)C(=O)N[C@@H](CO)C(=O)N[C@@H](CCCN=C(N)N)C(=O)O)C(C)C [VVKCSYRQGSPDSR] | –
